Values quoted from earlier work in patent US6974665B2, “In situ screening to optimize variables in organic reactions” (University of Nebraska, priority 2001, dated 2005).

How the values were obtained:
threonine synthase = biological target: T1, threonine synthase (Escherichia coli, UniProt P00934); settings: irreversible inhibitor
T1 sequence (P00934 1-428): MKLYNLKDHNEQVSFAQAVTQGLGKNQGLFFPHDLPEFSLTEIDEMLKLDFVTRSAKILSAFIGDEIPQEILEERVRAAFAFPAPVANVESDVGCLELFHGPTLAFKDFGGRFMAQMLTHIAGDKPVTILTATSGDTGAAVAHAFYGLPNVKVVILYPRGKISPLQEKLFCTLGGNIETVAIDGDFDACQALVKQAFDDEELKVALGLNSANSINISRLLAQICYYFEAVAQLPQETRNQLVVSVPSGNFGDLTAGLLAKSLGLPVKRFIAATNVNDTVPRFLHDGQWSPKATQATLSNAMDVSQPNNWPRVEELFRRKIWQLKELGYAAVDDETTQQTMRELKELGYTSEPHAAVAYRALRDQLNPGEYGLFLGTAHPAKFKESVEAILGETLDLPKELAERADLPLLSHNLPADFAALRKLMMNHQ

cystathionine γ-synthase = biological target: T2, cystathionine γ-synthase (Nicotiana tabacum, UniProt Q9ZPL5); settings: tight-binding reversible inhibitor
T2 sequence (Q9ZPL5 79-540): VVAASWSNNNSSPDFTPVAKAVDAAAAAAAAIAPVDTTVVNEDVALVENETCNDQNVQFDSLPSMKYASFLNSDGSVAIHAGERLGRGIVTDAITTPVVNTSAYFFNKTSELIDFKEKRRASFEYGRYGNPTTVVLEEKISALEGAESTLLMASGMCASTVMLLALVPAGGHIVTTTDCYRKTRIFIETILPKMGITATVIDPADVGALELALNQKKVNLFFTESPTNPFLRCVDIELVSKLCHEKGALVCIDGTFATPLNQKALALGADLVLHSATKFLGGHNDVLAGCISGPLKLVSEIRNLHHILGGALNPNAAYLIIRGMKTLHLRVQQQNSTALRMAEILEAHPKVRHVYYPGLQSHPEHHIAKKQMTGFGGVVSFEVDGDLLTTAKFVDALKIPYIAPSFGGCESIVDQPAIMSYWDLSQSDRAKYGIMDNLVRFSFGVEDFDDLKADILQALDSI

NC(/C=C/CP(=O)(O)O)C(=O)O (stereo not drawn) [APPA, (E)-2-Amino-5-phosphono-3-pentenoic Acid]
Ki (threonine synthase): 400 µM | kinact (threonine synthase): 0.25 min⁻¹ | Ki (cystathionine γ-synthase): 27 µM
